What was measured:
Type in all cases: biochemical
[1] = molecular target: T1, Kdr (Homo sapiens, UniProt P35968); experiment: Z'-Lyte FRET kinase assay (Invitrogen), Kdr; conditions: read-out: IC50, activity toward kinase Kdr
T1 construct: purchased Invitrogen (assay run by Invitrogen)

[2] = molecular target: T2, B-Raf V600E (Homo sapiens, UniProt P15056, V600E); experiment: AlphaScreen kinase assay, B-Raf V600E; conditions: read-out: IC50, activity toward kinase B-Raf V600E
T2 construct: P4254. pFastBacBD-CDC37 BRAF D437-K722-X, V600E; His6 with pFastBac HT leader (TEV site) (N); made in house; host or cells: Sf9 (baculovirus; chaperone CDC37 co-expressed)
T2 sequence (P15056 with tags, fused parts or gaps V600E): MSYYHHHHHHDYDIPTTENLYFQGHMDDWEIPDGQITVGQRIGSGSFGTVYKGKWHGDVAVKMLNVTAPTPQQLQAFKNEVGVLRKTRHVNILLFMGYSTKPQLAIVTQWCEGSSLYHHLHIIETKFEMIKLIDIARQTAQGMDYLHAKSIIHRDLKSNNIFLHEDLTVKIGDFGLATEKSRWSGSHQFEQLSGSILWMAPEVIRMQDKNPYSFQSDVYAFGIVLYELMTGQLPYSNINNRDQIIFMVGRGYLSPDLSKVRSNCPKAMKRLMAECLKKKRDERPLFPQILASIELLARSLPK

[3] = molecular target: T3, Stk6 (Homo sapiens, UniProt O14965); experiment: Z'-Lyte FRET kinase assay (Invitrogen), Stk6; conditions: read-out: IC50, activity toward kinase Stk6
T3 construct: purchased Invitrogen (Carlsbad, Calif.), screening service
T3 sequence (O14965 1-403): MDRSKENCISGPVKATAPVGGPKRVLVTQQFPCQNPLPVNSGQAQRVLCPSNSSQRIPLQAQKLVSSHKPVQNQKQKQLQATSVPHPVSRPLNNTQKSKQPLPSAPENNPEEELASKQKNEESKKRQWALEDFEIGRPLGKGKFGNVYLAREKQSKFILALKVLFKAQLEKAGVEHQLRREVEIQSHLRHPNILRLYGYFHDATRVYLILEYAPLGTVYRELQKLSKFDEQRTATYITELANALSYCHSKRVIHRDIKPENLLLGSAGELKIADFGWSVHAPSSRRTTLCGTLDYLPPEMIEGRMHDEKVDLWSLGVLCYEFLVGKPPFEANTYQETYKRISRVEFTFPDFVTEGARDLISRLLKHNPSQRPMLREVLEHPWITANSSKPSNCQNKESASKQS

[4] = molecular target: T4, Jnk3 (Homo sapiens, UniProt P53779); experiment: AlphaScreen kinase assay, Jnk3; conditions: read-out: IC50, activity toward kinase Jnk3
T4 construct: purchased Upstate Biotechnology
T4 sequence (P53779 whole entry): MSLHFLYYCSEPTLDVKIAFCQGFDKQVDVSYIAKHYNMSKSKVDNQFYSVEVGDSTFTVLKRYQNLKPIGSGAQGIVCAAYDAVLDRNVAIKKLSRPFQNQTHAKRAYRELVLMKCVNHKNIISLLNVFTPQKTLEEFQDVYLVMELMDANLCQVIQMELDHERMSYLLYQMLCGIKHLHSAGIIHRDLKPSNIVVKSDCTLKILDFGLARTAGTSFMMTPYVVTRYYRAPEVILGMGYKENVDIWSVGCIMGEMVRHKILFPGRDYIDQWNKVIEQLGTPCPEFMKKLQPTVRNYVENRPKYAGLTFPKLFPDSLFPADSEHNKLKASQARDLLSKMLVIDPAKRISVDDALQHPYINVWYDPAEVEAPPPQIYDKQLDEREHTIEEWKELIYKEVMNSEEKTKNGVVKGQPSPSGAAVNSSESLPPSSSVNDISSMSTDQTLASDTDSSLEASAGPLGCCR

[5] = molecular target: T5, Kit (Homo sapiens, UniProt P10721); experiment: AlphaScreen kinase assay, Kit; conditions: read-out: IC50, activity toward kinase Kit
T5 construct: P1332.N6 BI PTP KIT M552-K948-X COD; His6 (N); made in house; host or cells: E. coli (PTP1B co-expressed)
T5 sequence (P10721 with tags, fused parts or gaps): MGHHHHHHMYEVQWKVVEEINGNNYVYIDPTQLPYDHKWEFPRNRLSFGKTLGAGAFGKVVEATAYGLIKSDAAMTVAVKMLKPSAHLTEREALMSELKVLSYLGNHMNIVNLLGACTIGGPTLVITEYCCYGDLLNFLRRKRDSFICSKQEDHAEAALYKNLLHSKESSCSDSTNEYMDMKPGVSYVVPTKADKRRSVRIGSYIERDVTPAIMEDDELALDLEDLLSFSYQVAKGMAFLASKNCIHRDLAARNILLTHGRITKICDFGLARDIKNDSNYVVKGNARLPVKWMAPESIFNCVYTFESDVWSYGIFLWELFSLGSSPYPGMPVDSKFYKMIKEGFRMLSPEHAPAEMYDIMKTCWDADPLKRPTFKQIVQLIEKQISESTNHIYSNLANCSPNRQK

[6] = molecular target: T6, Fak (Homo sapiens, UniProt Q05397); experiment: AlphaScreen kinase assay, Fak; conditions: read-out: IC50, activity toward kinase Fak
T6 construct: P1358.pFastBacHtb FAK S411-Q686-X; His6 with pFastBacHTb leader (TEV site) (N); made in house; host or cells: Sf9 (baculovirus)
T6 sequence (Q05397 411-686): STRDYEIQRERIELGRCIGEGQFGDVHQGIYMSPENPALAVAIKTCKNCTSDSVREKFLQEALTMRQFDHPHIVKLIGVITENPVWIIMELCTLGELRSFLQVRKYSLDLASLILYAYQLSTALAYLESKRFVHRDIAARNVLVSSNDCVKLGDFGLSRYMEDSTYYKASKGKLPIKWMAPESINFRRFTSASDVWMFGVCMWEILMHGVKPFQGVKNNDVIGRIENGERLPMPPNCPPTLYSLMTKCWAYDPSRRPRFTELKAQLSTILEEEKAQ

[7] = molecular target: T7, Fms (Homo sapiens, UniProt P07333); experiment: AlphaScreen kinase assay, Fms; conditions: read-out: IC50, activity toward kinase Fms
T7 construct: purchased Upstate Biotechnology
T7 sequence (P07333 20-972): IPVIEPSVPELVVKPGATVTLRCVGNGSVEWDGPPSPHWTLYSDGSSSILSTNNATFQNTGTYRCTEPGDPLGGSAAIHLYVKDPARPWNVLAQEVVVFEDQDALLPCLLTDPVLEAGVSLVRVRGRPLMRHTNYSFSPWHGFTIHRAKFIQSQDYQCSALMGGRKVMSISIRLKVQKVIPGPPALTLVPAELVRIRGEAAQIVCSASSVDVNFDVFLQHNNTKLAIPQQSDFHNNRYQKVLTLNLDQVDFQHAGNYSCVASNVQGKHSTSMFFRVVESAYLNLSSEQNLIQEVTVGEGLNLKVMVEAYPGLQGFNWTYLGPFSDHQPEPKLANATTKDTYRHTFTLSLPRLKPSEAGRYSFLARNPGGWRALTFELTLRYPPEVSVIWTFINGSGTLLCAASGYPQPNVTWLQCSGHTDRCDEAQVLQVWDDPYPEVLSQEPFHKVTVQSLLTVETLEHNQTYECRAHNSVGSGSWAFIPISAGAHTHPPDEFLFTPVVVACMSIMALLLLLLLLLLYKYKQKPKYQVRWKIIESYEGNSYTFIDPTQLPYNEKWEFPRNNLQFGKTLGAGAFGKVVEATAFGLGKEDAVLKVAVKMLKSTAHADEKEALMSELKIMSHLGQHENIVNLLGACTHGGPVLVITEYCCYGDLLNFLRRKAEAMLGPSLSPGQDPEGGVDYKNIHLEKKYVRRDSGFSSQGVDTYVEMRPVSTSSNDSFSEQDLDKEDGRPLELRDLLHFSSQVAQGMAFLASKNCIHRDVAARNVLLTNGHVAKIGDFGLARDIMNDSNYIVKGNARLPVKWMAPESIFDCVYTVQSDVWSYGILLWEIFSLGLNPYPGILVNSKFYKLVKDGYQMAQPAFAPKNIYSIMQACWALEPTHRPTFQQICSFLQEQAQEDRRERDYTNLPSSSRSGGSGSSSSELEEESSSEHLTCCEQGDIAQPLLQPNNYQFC

[8] = molecular target: T8, FGFR1 (Homo sapiens, UniProt P11362, C488A/C584S); experiment: AlphaScreen kinase assay, FGFR1; conditions: read-out: IC50, activity toward kinase FGFR
T8 construct: P1351.pET N6 BI-PTP FGFR A458-E765-X C488A, C584S; made in house; host or cells: E. coli (PTP1B co-expressed)
T8 sequence (P11362 458-765 C488A/C584S): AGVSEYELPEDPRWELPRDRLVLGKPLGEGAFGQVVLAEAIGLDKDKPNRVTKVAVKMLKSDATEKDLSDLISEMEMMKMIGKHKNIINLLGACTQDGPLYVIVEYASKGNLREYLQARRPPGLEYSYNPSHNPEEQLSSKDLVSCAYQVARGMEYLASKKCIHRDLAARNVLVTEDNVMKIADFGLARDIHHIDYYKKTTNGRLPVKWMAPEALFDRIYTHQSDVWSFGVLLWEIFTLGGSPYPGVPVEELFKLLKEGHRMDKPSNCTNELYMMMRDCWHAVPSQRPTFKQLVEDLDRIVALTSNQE

[9] = molecular target: T9, Ret (Homo sapiens, UniProt P07949); experiment: AlphaScreen kinase assay, Ret; conditions: read-out: IC50, activity toward kinase Ret
T9 construct: P1378.pET-SF BI-PTP RET H661-R1012 HIS; made in house
T9 sequence (P07949 with tags, fused parts or gaps): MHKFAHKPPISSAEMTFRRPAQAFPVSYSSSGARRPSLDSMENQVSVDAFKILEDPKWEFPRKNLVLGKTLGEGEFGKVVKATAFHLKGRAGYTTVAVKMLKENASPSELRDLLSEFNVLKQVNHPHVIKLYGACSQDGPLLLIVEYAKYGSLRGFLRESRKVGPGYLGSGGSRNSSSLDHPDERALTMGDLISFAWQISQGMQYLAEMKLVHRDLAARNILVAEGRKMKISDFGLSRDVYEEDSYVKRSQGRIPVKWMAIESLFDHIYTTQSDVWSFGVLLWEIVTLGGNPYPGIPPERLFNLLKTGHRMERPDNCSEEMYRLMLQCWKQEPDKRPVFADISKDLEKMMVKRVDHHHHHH

[10] = molecular target: T10, B-Raf (Homo sapiens, UniProt P15056); experiment: AlphaScreen kinase assay, B-Raf; conditions: read-out: IC50, activity toward kinase B-Raf
T10 construct: purchased Upstate Biotechnology
T10 sequence (P15056 whole entry): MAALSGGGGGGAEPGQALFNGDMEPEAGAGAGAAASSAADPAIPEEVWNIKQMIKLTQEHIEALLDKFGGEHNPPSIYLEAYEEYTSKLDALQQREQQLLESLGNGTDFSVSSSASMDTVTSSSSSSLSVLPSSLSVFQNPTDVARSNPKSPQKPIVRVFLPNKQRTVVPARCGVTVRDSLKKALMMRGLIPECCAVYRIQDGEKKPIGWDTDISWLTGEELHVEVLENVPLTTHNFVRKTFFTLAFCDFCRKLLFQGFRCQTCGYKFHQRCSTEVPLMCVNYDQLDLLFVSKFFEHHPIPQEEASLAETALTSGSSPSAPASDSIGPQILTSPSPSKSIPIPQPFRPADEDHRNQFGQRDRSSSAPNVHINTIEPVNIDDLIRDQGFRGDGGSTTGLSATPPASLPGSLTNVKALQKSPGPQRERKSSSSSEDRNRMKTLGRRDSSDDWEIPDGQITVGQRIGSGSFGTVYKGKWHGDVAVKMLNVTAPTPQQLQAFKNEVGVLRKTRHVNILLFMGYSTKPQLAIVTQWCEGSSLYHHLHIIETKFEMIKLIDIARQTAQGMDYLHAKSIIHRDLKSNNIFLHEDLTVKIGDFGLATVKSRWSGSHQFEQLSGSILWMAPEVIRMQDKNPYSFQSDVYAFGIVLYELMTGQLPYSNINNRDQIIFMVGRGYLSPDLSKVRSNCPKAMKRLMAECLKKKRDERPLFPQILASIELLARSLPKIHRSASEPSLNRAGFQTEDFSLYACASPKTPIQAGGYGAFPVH

T1 sequence (P35968 20-1356): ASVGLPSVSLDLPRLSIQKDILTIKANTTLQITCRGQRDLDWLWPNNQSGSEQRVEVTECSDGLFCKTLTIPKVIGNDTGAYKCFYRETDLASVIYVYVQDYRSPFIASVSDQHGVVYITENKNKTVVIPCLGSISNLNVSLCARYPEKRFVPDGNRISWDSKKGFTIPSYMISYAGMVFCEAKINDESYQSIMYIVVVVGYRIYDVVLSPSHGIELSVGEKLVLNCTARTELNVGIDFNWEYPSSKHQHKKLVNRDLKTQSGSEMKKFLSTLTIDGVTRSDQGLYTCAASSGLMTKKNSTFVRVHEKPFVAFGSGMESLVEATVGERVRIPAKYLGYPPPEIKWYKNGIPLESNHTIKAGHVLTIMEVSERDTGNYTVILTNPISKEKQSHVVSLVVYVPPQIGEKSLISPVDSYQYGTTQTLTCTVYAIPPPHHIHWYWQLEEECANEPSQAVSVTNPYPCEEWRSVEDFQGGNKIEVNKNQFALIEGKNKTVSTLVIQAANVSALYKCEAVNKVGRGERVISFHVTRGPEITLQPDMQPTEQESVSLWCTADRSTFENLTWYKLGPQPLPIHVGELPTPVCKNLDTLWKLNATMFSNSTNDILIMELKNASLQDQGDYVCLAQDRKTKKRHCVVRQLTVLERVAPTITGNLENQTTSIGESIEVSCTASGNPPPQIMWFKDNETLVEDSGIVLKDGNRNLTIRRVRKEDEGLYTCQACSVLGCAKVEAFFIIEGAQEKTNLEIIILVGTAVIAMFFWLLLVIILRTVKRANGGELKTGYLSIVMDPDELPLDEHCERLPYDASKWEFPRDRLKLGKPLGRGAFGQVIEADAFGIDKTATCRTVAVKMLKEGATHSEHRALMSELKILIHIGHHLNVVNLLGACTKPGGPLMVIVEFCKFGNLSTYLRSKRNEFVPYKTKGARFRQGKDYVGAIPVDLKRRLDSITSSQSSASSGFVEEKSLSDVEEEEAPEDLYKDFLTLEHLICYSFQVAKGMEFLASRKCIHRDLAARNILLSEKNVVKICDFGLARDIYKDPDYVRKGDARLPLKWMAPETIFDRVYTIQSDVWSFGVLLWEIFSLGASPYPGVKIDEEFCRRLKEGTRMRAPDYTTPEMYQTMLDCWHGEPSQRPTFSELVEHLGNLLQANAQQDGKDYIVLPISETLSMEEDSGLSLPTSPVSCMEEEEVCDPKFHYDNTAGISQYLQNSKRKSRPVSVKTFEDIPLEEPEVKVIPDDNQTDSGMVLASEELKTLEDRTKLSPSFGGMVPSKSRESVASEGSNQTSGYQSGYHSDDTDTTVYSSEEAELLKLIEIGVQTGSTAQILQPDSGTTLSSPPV

| SMILES | IC50 [1] [µM] | IC50 [2] [µM] | IC50 [3] [µM] | also measured |
| --- | --- | --- | --- | --- |
| COc1cccc(C(=O)c2ccc(-c3cnc4[nH]ccc4c3)s2)c1 [Compound P-0494] |  |  |  | IC50 [6]: ≤ 10 µM |
| CC(=O)c1cccc(-c2cnc3[nH]ccc3c2)c1 [Compound P-0080] |  |  | ≤ 10 | IC50 [4]: ≤ 10 µM |
| Cc1[nH]c2ncccc2c1-c1ccc(C(C)C)cc1 [Compound P-1083] |  |  |  | IC50 [6]: ≤ 10 µM |
| CCCCN(c1ccc(F)c(Cc2c[nH]c3ncc(-c4cccnc4)cc23)c1F)S(=O)(=O)c1ccc(C(F)(F)F)cc1 [Compound P-1401] |  |  |  | IC50 [6]: ≤ 10 µM |
| Cc1[nH]c2ncccc2c1-c1ccco1 [Compound P-1190] |  |  |  | IC50 [6]: ≤ 10 µM |
| Cc1[nH]c2ncccc2c1-c1ccc(F)c(Cl)c1 [Compound P-1146] |  |  |  | IC50 [6]: ≤ 10 µM |
| Cc1ccsc1Cc1c[nH]c2ncccc12 [Compound P-0191] |  | ≤ 10 | ≤ 10 |  |
| COc1cccc(NC(=S)N2CCC(C(=O)c3c[nH]c4ncccc34)CC2)c1 [Compound P-0208] |  | ≤ 10 | ≤ 10 |  |
| Cn1cccc1C(=O)c1c[nH]c2ncccc12 [Compound P-0147] | ≤ 10 | ≤ 10 | ≤ 10 |  |
| c1coc(CNCc2c[nH]c3ncccc23)c1 [Compound P-0322] | ≤ 10 |  | ≤ 10 |  |
| O=C(O)/C=C/c1ccc(-c2ccnc3[nH]ccc23)cc1 [Compound P-0203] | ≤ 10 |  | ≤ 10 |  |
| c1csc(-c2c[nH]c3ncccc23)c1 [Compound P-0253] |  |  | ≤ 10 | IC50 [5]: ≤ 10 µM |
| CC(C)CCc1c[nH]c2ncccc12 [Compound P-0797] |  |  |  | IC50 [6]: ≤ 10 µM |
| Clc1ccnc2[nH]cc(Sc3cccs3)c12 [Compound P-0489] |  |  | ≤ 10 | IC50 [8]: ≤ 10 µM |
| c1coc(-c2nc(-c3ccnc4[nH]ccc34)no2)c1 [Compound P-0319] | ≤ 10 |  | ≤ 10 |  |
| c1cnc2[nH]cc(-c3ccoc3)c2c1 [Compound P-0260] | ≤ 10 |  | ≤ 10 |  |
| NS(=O)(=O)c1cccc(Nc2c[nH]c3ncccc23)c1 [Compound P-1500, 3-(1H-Pyrrolo[2,3-b]pyridin-3-ylamino)-benzenesulfonamide] |  |  |  | IC50 [7]: ≤ 10 µM; IC50 [5]: ≤ 10 µM; IC50 [6]: ≤ 10 µM |
| COc1ccc(-c2c(CSCC(C)C)[nH]c3ncccc23)cc1 [Compound P-0313] |  |  | ≤ 10 | IC50 [4]: ≤ 10 µM |
| Cc1cccc(C)c1Cc1c[nH]c2ncccc12 [Compound P-0333, 3-(2,6-Dimethyl-benzyl)-1H-pyrrolo[2,3-b]pyridine] |  | ≤ 10 |  | IC50 [7]: ≤ 10 µM; IC50 [5]: ≤ 10 µM; IC50 [6]: ≤ 10 µM |
| OC(c1ccccc1F)c1c[nH]c2ncc(Br)cc12 (stereo not drawn) [Compound P-1321] |  |  |  | IC50 [7]: ≤ 10 µM; IC50 [8]: ≤ 10 µM; IC50 [5]: ≤ 10 µM; IC50 [6]: ≤ 10 µM |
| O=C(c1cccc(F)c1)c1ccc(-c2cnc3[nH]ccc3c2)s1 [Compound P-0235] |  |  | ≤ 10 | IC50 [5]: ≤ 10 µM |
| Fc1cccc(F)c1Cc1c[nH]c2ncccc12 [Compound P-1482, 3-(2,6-Difluoro-benzyl)-1H-pyrrolo[2,3-b]pyridine] |  |  |  | IC50 [7]: ≤ 10 µM; IC50 [8]: ≤ 10 µM; IC50 [5]: ≤ 10 µM; IC50 [6]: ≤ 10 µM |
| COc1ccc(CCCc2c[nH]c3ncccc23)cc1 [Compound P-0437] |  |  |  | IC50 [6]: ≤ 10 µM |
| O=C(O)/C=C/c1cccc(-c2ccnc3[nH]cc(C(=O)c4cccc(Cl)c4Cl)c23)c1 [Compound P-0110] | ≤ 10 | ≤ 10 | ≤ 10 | IC50 [9]: ≤ 10 µM |
| Cc1cc(C)cc(-c2c(C)[nH]c3ncccc23)c1 [Compound P-1054] |  |  |  | IC50 [6]: ≤ 10 µM |
| Cc1cc(C(=O)c2c[nH]c3nccc(-c4cccc(/C=C/C(=O)O)c4)c23)n(C)n1 [Compound P-0469] |  |  | ≤ 10 | IC50 [9]: ≤ 10 µM |
| Cc1ccc(-c2ccnc3[nH]cc(Sc4cccs4)c23)cc1[N+](=O)[O-] [Compound P-0199] | ≤ 10 | ≤ 10 | ≤ 10 |  |

More lines, main results first:

| IC50 [1] [µM] | IC50 [2] [µM] | IC50 [3] [µM] | SMILES | also measured |
| --- | --- | --- | --- | --- |
| ≤ 10 | ≤ 10 | ≤ 10 | OC(c1ccc(NCc2ccc(Cl)cc2)nc1)c1c[nH]c2ncccc12 (stereo not drawn) [Compound P-0261] |  |
| ≤ 10 |  | ≤ 10 | c1ccc(-c2cnc3[nH]ccc3c2)cc1 [Compound P-0279] | IC50 [4]: ≤ 10 µM; IC50 [5]: ≤ 10 µM |
|  | ≤ 10 |  | COc1cccc(Cc2c[nH]c3ncc(-c4ccccc4)cc23)c1F [Compound P-1323, 3-(2-Fluoro-3-methoxy-benzyl)-5-phenyl-1H-pyrrolo[2,3-b]pyridine] | IC50 [7]: ≤ 10 µM; IC50 [8]: ≤ 10 µM; IC50 [5]: ≤ 10 µM; IC50 [6]: ≤ 10 µM |
| ≤ 10 |  | ≤ 10 | O=C(c1ccc(Nc2cccc(O)c2)nc1)c1c[nH]c2ncccc12 [Compound P-0189] | IC50 [7]: ≤ 10 µM; IC50 [8]: ≤ 10 µM; IC50 [4]: ≤ 10 µM |
|  |  | ≤ 10 | c1ccc(COc2cccc(Cc3c[nH]c4ncc(-c5ccsc5)cc34)c2)cc1 [Compound P-0132] | IC50 [8]: ≤ 10 µM; IC50 [4]: ≤ 10 µM; IC50 [5]: ≤ 10 µM |
| ≤ 10 |  | ≤ 10 | Fc1cccc(-c2ccnc3[nH]ccc23)c1 [Compound P-0225] |  |
|  | ≤ 10 | ≤ 10 | CC(C)CNc1ccc(C(O)c2c[nH]c3ncccc23)cn1 (stereo not drawn) [Compound P-0185] |  |
| ≤ 10 |  | ≤ 10 | Fc1ccc(-c2c(CSCc3ccco3)[nH]c3ncccc23)cc1 [Compound P-0064] | IC50 [9]: ≤ 10 µM; IC50 [5]: ≤ 10 µM |
| ≤ 10 | ≤ 10 | ≤ 10 | CC(=O)c1cccc(-c2ccnc3[nH]cc(Sc4cccs4)c23)c1 [Compound P-0092] |  |
|  | ≤ 10 | ≤ 10 | CN(c1ccccc1)c1ccnc2[nH]ccc12 [Compound P-0118] |  |
| ≤ 10 | ≤ 10 | ≤ 10 | O=C(c1ccc(Oc2cc(Cl)cc(Cl)c2)o1)c1c[nH]c2ncccc12 [Compound P-0295] |  |
| ≤ 10 |  | ≤ 10 | COC(c1c(F)ccc(N(Cc2ccccc2)Cc2ccccc2)c1F)c1c[nH]c2ncc(-c3cccnc3)cc12 (stereo not drawn) [Compound P-0143] | IC50 [10]: ≤ 10 µM |
|  |  | ≤ 10 | Cc1ccc(S(=O)(=O)Nc2ccc(Cc3c[nH]c4ncccc34)cc2)cc1 [Compound P-0426] | IC50 [8]: ≤ 10 µM |
| ≤ 10 | ≤ 10 | ≤ 10 | OCc1cccc(-c2ccnc3[nH]cc(Sc4cccs4)c23)c1 [Compound P-0071] | IC50 [9]: ≤ 10 µM |
|  | ≤ 10 | ≤ 10 | Fc1cccc(-c2ccnc3[nH]cc(Sc4cccs4)c23)c1 [Compound P-0181] | IC50 [9]: ≤ 10 µM |
| ≤ 10 | ≤ 10 | ≤ 10 | O=C(O)/C=C/c1cccc(-c2ccnc3[nH]cc(C(=O)c4ccc(Cl)cc4)c23)c1 [Compound P-0100] | IC50 [9]: ≤ 10 µM |
|  | ≤ 10 | ≤ 10 | O=C(c1ccc(Nc2cccc(OCc3ccccc3)c2)nc1)c1c[nH]c2ncccc12 [Compound P-0355] |  |
|  |  | ≤ 10 | Cc1ccc(Sc2c[nH]c3nccc(-c4cccc(CO)c4)c23)cc1 [Compound P-0250] | IC50 [9]: ≤ 10 µM |

From patent publication US8415469B2, “Compounds and methods for kinase modulation, and indications therefor” (Plexxikon Inc., priority 2005, dated 2013)
